We go through two compounds from patent US9326511B2, “Methods of inhibiting microbial biofilms” (priority 2008, dated 2016).

Series [1] relates to S. aureus SH1000 stationary phase cultures. Description: Time-kill against stationary phase cultures. The settings on record: early, mid and late stationary phase (24, 48, 72 hours), 10^8 bacteria/mL in spent medium. The class given is cell-based, Staphylococcus aureus. The procedure:
The anti-staphylococcal activities of Compound 10, Compound 12 and a range of comparator agents against stationary phase cultures of Staphylococcus aureus were studied using standard time-kill methodology (Oliva et al., 2003, Hobbs et al., 2008). A growth curve was constructed to identify when SH1000 cultures enter and leave stationary phase. 50 mL of Mueller-Hinton broth (MHB) was inoculated with 500 μL of Staphylococcus aureus SH1000 overnight culture and was maintained at 37° C. with agitation for 8 days. The culture turbidity at OD600 nm was measured at regular intervals using a Jenway 6300 spectrophotometer with a 1 cm light path (Jenway, Essex, UK). Staphylococcus aureus SH1000 cultures were grown to early, mid and late stationary phase at 37° C. by incubation for 24, 48 and 72 hours respectively. Cultures were centrifuged, the supernatant was removed, and then a portion of the cell pellet was resuspended in the counterpart supernatant to an OD600 nm of 0.2 (10^8 bacteria/mL). A time-kill assay was then performed on these stationary phase suspensions to study the effects of antimicrobial agents on bacterial cell viability. An untreated culture served as the negative control. The experiments were undertaken in triplicate. […]

Series [2] is described as follows: Chemical stability, qualitative stress tests (HPLC, LC-MS). The class given is physicochemical. The settings on record: solid, aqueous solution, PBS, 7 days each at 50, 70 and 90° C. The protocol: The following HPLC methodology was established for the analysis of the exemplary compounds of the invention.
The method involves detection by UV at a wavelength of 420 nm, which is very specific for these compounds. In order to monitor impurities not related to the porphyrin structure (and therefore not absorbing at 420 nm) UV spectra of the whole chromatograms were also recorded between 200 nm and 700 nm by DAD (diode array detector) in certain experiments. • Column: Zorbax Phenyl, 250×4.6 mm, 5 µm • Eluent A: 1.5 g sodium dodecylsulfate+1 mL formic acid in 1000 mL water • Eluent B: 1.5 g sodium dodecylsulfate+1 mL formic acid in 200 mL water+800 mL tetrahydrofurane • Gradient:
• Flow rate: 0.4 mL/min • Detection: 420 nm • Column temperature: 25° C. • Injection volume: 10 μl • Solutions: Porphyrin derivatives were dissolved in eluent A to give a final concentration of approximately 0.3 mg/ml.
Qualitative stress tests were undertaken on the exemplary compounds of the invention. Analysis was undertaken by HPLC & LC-MS. The compounds were stress tested in solid form, in an aqueous solution and a solution made up in phosphate-buffered saline buffer. The samples were initially incubated for 7 days at 50° C. and a sample removed for testing. The samples were then incubated for a further 7 days at 70° C., samples removed as before and the samples incubated further for 7 days at 90° C. HPLC analysis of freshly prepared solutions was undertaken and compared to the samples after 7, 14 and 21 days incubation. A visual comparison of the chromatograms was then undertaken and the content of the main products and by-products as area percentage values determined (see FIG. 4).

For series [3], the system named is stringent S. aureus SH1000 cultures. Briefly: Time-kill against cultures expressing the stringent response (induced with mupirocin). The class given is cell-based, Staphylococcus aureus. To be noted: for viability / bactericidal activity in time-kill (in words): stringent response induced with mupirocin, agents at 4×MIC. The protocol: Methods: MICs were determined for planktonic cultures by broth microdilution according to British Society for Antimicrobial Chemotherapy (BSAC) guidelines. Biofilm MICs (bMIC) and minimum biofilm eradication concentrations (MBECs) were determined using the Calgary biofilm device. The effect of Compound 10 on the viability of cold culture cells was determined by growing S. aureus SH1000 to early exponential phase at 37° C. and resuspending the cells in pre-chilled media, where they were maintained in the presence and absence of Compound 10 and control agents. The effect of Compound 10 on slow growing cells expressing the stringent response was also determined by growing cultures to early log phase and the stringent response induced by the addition of the isoleucyl-tRNA synthetase inhibitor mupirocin. Compound 10 and control agents were then added and samples recovered for viable cell determinations.
When nutrients become limiting for growth bacteria adjust their metabolism from one that supports growth to one that provides for long survival in the absence of nutrients. In many bacteria a key facilitator of this physiological switch, known as the stringent response, is accumulation of guanosine […] and pentaphosphate (Traxler et al., 2008). The antibiotic mupirocin is a strong inducer of the stringent response in S. aureus and effectively causes starvation of charged isoleucyl tRNA by potent inhibition of isoleucy ItRNA synthetase (IRS) (Oliva et al., 2003). The activity of XF drugs against S. aureus SH1000 prevented from growing by the addition of mupirocin (Oliva et al., 2003), was therefore examined (FIG. 10). As an alternative method for arresting growth, bacteria were suspended in cold growth medium (Mascio et al., 2007) and the bactericidal activity of XF drugs was also determined under these conditions (FIG. 11).
The anti-staphylococcal activities of Compound 10, Compound 12 and a range of comparator agents against slow-growing cultures of Staphylococcus aureus were studied using standard time-kill methodology (Oliva et al. 2003, Hobbs et al. 2008). Staphylococcus aureus SH1000 cultures were grown to early exponential phase (OD600 nm of 0.2) in Mueller-Hinton broth (MHB) before being exposed to antibacterial agents at 4×MIC. An untreated culture served as the negative control. The experiments were undertaken in triplicate.
The antibiotic mupirocin is a strong inducer of the stringent response in S. aureus and causes starvation of charged isoleucyl tRNA by potent inhibition of isoleucyl tRNA synthetase (IRS) (Oliva et al. 2003, Cassels et al. 1995) Stringency was induced in SH1000 cultures by adding mupirocin (4 mg/L) to cells in the early exponential growth phase (OD600 nm of 0.2) (Oliva et al. 2003, Cassels et al. 1995). Cultures were incubated with mupirocin for 30 minutes before sampling began. Cultures were maintained at 37° C., and samples were taken at 30 minute intervals for 300 minutes, serially diluted in phosphate buffered saline (PBS) and diluted culture was spread on Mueller-Hinton agar and was incubated at 37° C. for 18-24 hours before the number of CFU were counted.

Consider `C[N+](C)(C)CCCOc1ccc(-c2c3nc(cc4ccc([nH]4)c(-c4ccc(OCCC[N+](C)(C)C)cc4)c4nc(cc5ccc2[nH]5)C=C4)C=C3)cc1.[Cl-].[Cl-]` [Compound 10, 5,15-bis-[4-(3-Trimethylammonio-propyloxy)-phenyl]-porphyrin dichloride], for which, in series [1], the “bactericidal activity in time-kill (in words)” value was “retained potent bactericidal activity”. Moreover, in series [2], the “Chemical stability under stress” value was “good stability”. This compound registered a drop in viability in series [3] (stringent response cultures, 4×MIC, within 1 hour) of 5 log. In series [3], the “viability / bactericidal activity in time-kill (in words)” value is “retained potent bactericidal activity”.

Consider `C[N+](C)(C)CCCOc1cccc(-c2c3nc(cc4ccc([nH]4)c(-c4cccc(OCCC[N+](C)(C)C)c4)c4nc(cc5ccc2[nH]5)C=C4)C=C3)c1.[Cl-].[Cl-]` [Compound 12, 5,15-bis-[3-(3-Trimethylammonio-propyloxy)-phenyl]-porphyrin dichloride], for which the “bactericidal activity in time-kill (in words)” value in series [1] is listed as “retained potent bactericidal activity”. Besides, the “Chemical stability under stress” value in series [2] is recorded as “good stability”. In addition, in series [3], the “viability / bactericidal activity in time-kill (in words)” value is reported as “retained potent bactericidal activity”.
